# Read-outs that look alike come from different tables or passages of the source. Where a SMILES comes first, the peptide text is derived from it. Bridges are numbered along the chain shown (N, C = ends).
# T1: ectodomain of MET fused to Fc (UniProt P08581 25-932)
# T1 chain: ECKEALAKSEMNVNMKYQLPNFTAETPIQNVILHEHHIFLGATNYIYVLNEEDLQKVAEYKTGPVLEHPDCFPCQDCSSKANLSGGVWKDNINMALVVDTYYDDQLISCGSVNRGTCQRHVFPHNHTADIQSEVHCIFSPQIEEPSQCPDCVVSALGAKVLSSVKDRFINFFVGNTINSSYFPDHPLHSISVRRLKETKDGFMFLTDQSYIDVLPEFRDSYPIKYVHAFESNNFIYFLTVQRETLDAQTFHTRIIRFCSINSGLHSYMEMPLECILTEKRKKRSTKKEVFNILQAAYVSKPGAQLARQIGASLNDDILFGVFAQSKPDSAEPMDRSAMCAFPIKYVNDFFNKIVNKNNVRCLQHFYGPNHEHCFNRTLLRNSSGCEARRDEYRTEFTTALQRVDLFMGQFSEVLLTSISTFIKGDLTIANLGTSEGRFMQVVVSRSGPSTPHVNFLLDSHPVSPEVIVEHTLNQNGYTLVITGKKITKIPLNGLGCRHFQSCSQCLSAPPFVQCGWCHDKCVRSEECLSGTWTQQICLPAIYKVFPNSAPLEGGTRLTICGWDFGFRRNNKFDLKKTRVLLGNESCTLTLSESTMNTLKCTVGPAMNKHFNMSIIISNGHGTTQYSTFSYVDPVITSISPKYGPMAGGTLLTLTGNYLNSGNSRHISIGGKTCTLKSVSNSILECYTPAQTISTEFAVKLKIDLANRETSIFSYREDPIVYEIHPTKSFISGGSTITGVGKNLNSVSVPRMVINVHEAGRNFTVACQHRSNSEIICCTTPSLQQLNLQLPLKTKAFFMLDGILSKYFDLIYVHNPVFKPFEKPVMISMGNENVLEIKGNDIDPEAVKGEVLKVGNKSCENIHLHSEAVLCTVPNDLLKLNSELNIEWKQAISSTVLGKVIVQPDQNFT
# Assays:
# [1] = target: cMET; conditions: cited from earlier work
# Procedure: To answer our questions raised in the introduction, we chose the ectodomain of MET fused to Fc as a selection target for two reasons. (1) Since we previously performed the RaPID campaign using a thioether-macrocyclic peptide library and successfully identified potent ligands with the range of KD of 2–20 nM (Table S1A), this target has been validated as a reliable protein to reproduce the selection experiment.[22] (2) At the time when the selection was performed previously, the NGS technology was unavailable in our laboratory, and thereby the sequences were determined by ∼40 clones available fr ... || page 9: Table S1A. Representative peptide sequences discovered by RaPID system. Residues engaged in thioether- macrocyclization are marked with asterisks. mRNA display (RaPID system) Diversity scale: >1012 Screening KD IC50 Library design/ Consensus motif/ Variants Reference Target (nM) (nM) Note Peptide sequence DW*X2MeSX2MeF-MeG/X- E6AP 0.6 DW*X8-15C* 6 (32) XMeFPC* 92 LY*WIX2TWPXVXRXC* 2 Akt2 L/DY*X4-12C* (33) 110 LY*ILVRNRXLRVDC* 2 3.8 LY*SNFRI-LysTfa-RYSNSSC* 21 SIRT2 L/DY*-Xn-LysTfa-XnC* (34) 3.7 DY*HDYRI-LysTfa-RYHTYPC* 16 94 LF*VVVSTDPWVNGLYIDC* 2 8 LF*IGHYRVKVHPISLERC* 1 VEGFR2 L/DF*X ...
# [2] = target: Fc-fused MET (His-/hFc-tagged human MET ectodomain) (Homo sapiens, UniProt P08581); experiment: SPR binding kinetics of selected macrocyclic peptides to Fc-fused MET
# [3] = target: T2, ectodomain of MET (hepatocyte growth factor receptor) fused to Fc (UniProt P08581 25-932); experiment: SPR; macrocyclic peptides on MET; concentration-dependent sensorgrams fitted by a 1:1 binding model; conditions: both partners purified
# T2 construct: MET, hepatocyte growth factor receptor, a receptor tyrosine kinase; ectodomain; also called MET-Fc; Fc-tagged MET
# [4] = target: T1, ectodomain of MET fused to Fc; experiment: SPR
# [5] = target: T2, ectodomain of MET (hepatocyte growth …); experiment: SPR; macrocyclic peptides on MET; concentration-dependent sensorgrams fitted by a 1:1 binding model; conditions: both partners purified; remark: listed apart in the source
# [6] = library L/DY*X4-15C*, mRNA display (RaPID system), ref (16), read-out: KD (Table S1A, screening target cMET)
molecule,measurement,setting,value
"CC[C@H](C)[C@@H]1NC(=O)[C@H](Cc2ccc(O)cc2)NC(=O)CSC[C@@H](C(=O)NCC(N)=O)NC(=O)[C@H]([C@@H](C)O)NC(=O)[C@H]([C@@H](C)CC)NC(=O)[C@H](Cc2ccccc2)NC(=O)[C@H](CCCNC(=N)N)NC(=O)[C@H](Cc2c[nH]c3ccccc23)NC(=O)[C@H](CC(N)=O)NC(=O)[C@@H]2CCCN2C(=O)[C@H](CO)NC(=O)[C@H](CC(N)=O)NC(=O)[C@H](Cc2ccccc2)NC(=O)[C@H](CCC(=O)O)NC(=O)[C@H](CC(N)=O)NC(=O)[C@H](Cc2c[nH]c3ccccc23)NC(=O)[C@H](CO)NC1=O [aML5, reference compound] ({CH2CO}-YISWNEFNSPNWRFITCG-NH2; thioether N-17)",Kd,"[1]; previously determined value, read-out: KD (previous RaPID campaign)",0.019 µM
same,kd,[2]; SPR conditions as E1,0.00606 s⁻¹
same,kon,"[2]; pH 7.4, read-out: ka",539000 M⁻¹ s⁻¹
same,kon,"[2]; read-out: ka, Measure 1",371000 M⁻¹ s⁻¹
same,kon,"[2]; read-out: ka, Measure 2",405000 M⁻¹ s⁻¹
DY*RQFNRRTHEVWNLDC* (sidechain bridge or staple),Kd,[1]; [6],0.0024 µM
DY*WYYAWDQTYKAFPC* (sidechain bridge or staple),Kd,[1]; [6],0.0023 µM
{CH2CO}-YLLWHKYDNKDWVYVDCG-NH2 (thioether N-17; SMILES CC(C)C[C@@H]1NC(=O)[C@H](Cc2ccc(O)cc2)NC(=O)CSC[C@@H](C(=O)NCC(N)=O)NC(=O)[C@H](CC(=O)O)NC(=O)[C@H](C(C)C)NC(=O)[C@H](Cc2ccc(O)cc2)NC(=O)[C@H](C(C)C)NC(=O)[C@H](Cc2c[nH]c3ccccc23)NC(=O)[C@H](CC(=O)O)NC(=O)[C@H](CCCCN)NC(=O)[C@H](CC(N)=O)NC(=O)[C@H](CC(=O)O)NC(=O)[C@H](Cc2ccc(O)cc2)NC(=O)[C@H](CCCCN)NC(=O)[C@H](Cc2c[nH]cn2)NC(=O)[C@H](Cc2c[nH]c3ccccc23)NC(=O)[C@H](CC(C)C)NC1=O) [macrocyclic peptide 10-5],Kd,[3],0.0195 µM
same,koff,[4],0.00694 s⁻¹
{CH2CO}-YYSWSGNVSESVKWNSCG-NH2 (thioether N-17; SMILES CC(C)[C@@H]1NC(=O)[C@H](CC(N)=O)NC(=O)CNC(=O)[C@H](CO)NC(=O)[C@H](Cc2c[nH]c3ccccc23)NC(=O)[C@H](CO)NC(=O)[C@H](Cc2ccc(O)cc2)NC(=O)[C@H](Cc2ccc(O)cc2)NC(=O)CSC[C@@H](C(=O)NCC(N)=O)NC(=O)[C@H](CO)NC(=O)[C@H](CC(N)=O)NC(=O)[C@H](Cc2c[nH]c3ccccc23)NC(=O)[C@H](CCCCN)NC(=O)[C@H](C(C)C)NC(=O)[C@H](CO)NC(=O)[C@H](CCC(=O)O)NC(=O)[C@H](CO)NC1=O) [macrocyclic peptide 12-2],Kd,[5],0.00867 µM
{CH2CO}-YWWYYWYRDEYLWRTRCG-NH2 (thioether N-17; SMILES CC(C)C[C@@H]1NC(=O)[C@H](Cc2ccc(O)cc2)NC(=O)[C@H](CCC(=O)O)NC(=O)[C@H](CC(=O)O)NC(=O)[C@H](CCCNC(=N)N)NC(=O)[C@H](Cc2ccc(O)cc2)NC(=O)[C@H](Cc2c[nH]c3ccccc23)NC(=O)[C@H](Cc2ccc(O)cc2)NC(=O)[C@H](Cc2ccc(O)cc2)NC(=O)[C@H](Cc2c[nH]c3ccccc23)NC(=O)[C@H](Cc2c[nH]c3ccccc23)NC(=O)[C@H](Cc2ccc(O)cc2)NC(=O)CSC[C@@H](C(=O)NCC(N)=O)NC(=O)[C@H](CCCNC(=N)N)NC(=O)[C@H]([C@@H](C)O)NC(=O)[C@H](CCCNC(=N)N)NC(=O)[C@H](Cc2c[nH]c3ccccc23)NC1=O) [macrocyclic peptide 10-6],Kd,[3],0.219 µM
